Structures can show the parent of a compound that is named as a salt.
Assays:
[1] = cited from earlier work
[2] = assay type: in vivo; conditions: hot-plate model; test end point 180 minutes
[3] = system: mice; assay type: in vivo, mouse; conditions: for inhibition of the activity of Crotoxin: summary statement on antagonist studies

SMILES | analgesic potency relative to morphine ([1]; halved again when given orally rather than parenterally) | duration of activity ([1]; in vivo) | onset of activity ([1]; in vivo) | time of maximal effect on hot-plate response [2] | effect on Crotoxin-induced analgesia, hotplate test ([3]; Atropine 0.25-1 mg/kg, Naloxone 1.25-5 mg/kg) | inhibition of the activity of Crotoxin [3]
CCOC(=O)C1(c2ccccc2)CCN(C)CC1 [Dolantin, Meperidine hydrochloride] | one-tenth as potent an analgesic as morphine | 2 to 4 h | 10 to 45 min | 30 min | – | –
C=CCN1CC[C@]23c4c5ccc(O)c4O[C@H]2C(=O)CC[C@@]3(O)[C@H]1C5 [Naloxone] | – | – | – | – | no effect | failed to inhibit
CN1[C@@H]2CC[C@H]1C[C@@H](OC(=O)C(CO)c1ccccc1)C2 (stereo partly shown) [Atropine] | – | – | – | – | – | failed to inhibit

Source: US20070148159A1, “Use of crotoxin as an analgesic - CIP” (priority 2005, published 2007)
